Measured values published in patent publication US20230000863A1, “COMPOSITION CONTAINING AROMATIC HETEROCYCLIC COMPOUND IN AMORPHOUS FORM, AND PREPARATION METHOD THEREFOR AND USE THEREOF” (SHENZHEN CHIPSCREEN BIOSCIENCES CO., LTD., priority 2019, published 2023).

What was measured:
Assay type in all cases: in vivo
[1] = Pharmacokinetic test of pharmaceutical preparations in rats; conditions: both sexes, rat, po, fasted, gavage, 20 mg/kg of compound of Formula (1), LC-MS/MS
Description: Thirty healthy rats were selected and randomly divided into 5 groups, 6 rats (3 females, 3 males) per group, which were respectively the groups of the compound of Formula (1), the capsules of Formulation Example 1, the granules of Formulation Example 4, the tablets of Formulation Example 7, and the soft capsules of Formulation Example 10. During the experiment, the rats were fasted overnight before administration, and blood was collected from the orbit before administration, and the plasma was separated, which was taken as the blood concentration sample at 0 h. The gavage solutions were prepared by dispersing with purified water, the concentration of the gavage solutions was 2 mg/ml, and each rat was administered with the compound of Formula (1) at a dose of 20 mg/kg respectively. After administration, blood samples were collected at 15 min, 0.5 h, 1 h, 2 h, 4 h, 6 h, and 8 h, and each sample was collected about 0.5 ml, anticoagulated with heparin sodium, placed on ice after collection, and centrifuged within 1 hour to separate plasma, which was stored at −80° C. for later test. The drug concentration in plasma was measured by LC-MS/MS.

[2] = Pharmacokinetic test of pharmaceutical preparations in beagle dogs; conditions: po, fasted, gavage, 100 mg of compound of Formula (1) per dog, LC-MS/MS
Experimental: Nine healthy beagle dogs were selected, which were divided into the group of the compound of Formula (1), capsules of Formulation Example 1, and capsules of Formulation Example 11. During the experiment, the beagle dogs were fasted overnight before administration, and venous blood was collected before administration, and plasma was separated as the blood drug concentration sample at […]. Each beagle dog was administrated by gavage at a dose of 100 mg of the compound of Formula (1), respectively. After administration, blood samples were collected at 15 min, 0.5 h, 1 h, 2 h, 4 h, 8 h, and 24 h respectively. Each sample was collected about 0.5 ml, anticoagulated with heparin sodium, placed on ice after collection, and centrifuged within 1 hour to separate plasma, the drug concentration in plasma was measured by LC-MS/MS.

[3] = Pharmacokinetic test of compositions containing the compound of Formula (1) in rats; conditions: rat, po, fasted, gavage, 20 mg/kg of compound of Formula (1), LC-MS/MS
Experimental: Twenty-four healthy rats were selected and randomly divided into 4 groups, 6 rats per group, which were respectively compound of Formula (1), Example 3, Example 4 and Example 7. During the experiment, the rats were fasted overnight before administration, and blood was collected from the orbit before administration, and the plasma was separated, which was taken as the blood concentration sample at 0 h. The gavage solutions were prepared by dispersion with purified water, the concentration of the gavage solutions was 2 mg/ml, and each rat was administered with the compound of Formula (1) at a dose of 20 mg/kg, respectively. After administration, blood samples were collected at 15 min, 0.5 h, 1 h, 2 h, 4 h, 6 h, and 8 h, and each sample was collected about 0.5 ml, anticoagulated with heparin sodium, placed on ice after collection, and centrifuged within 1 hour to separate plasma, which was stored at −80° C. for later test. The drug concentration in plasma was measured by LC-MS/MS.

An AUC(0-t) ([1]; plasma 0-8 h) of 235 ng·h/mL, a Cmax ([1]; plasma) of 243 ng/mL and an AUC(0-t) ([2]; plasma 0-24 h) of 30 ng·h/mL were found for `C=CC(=O)N(C)c1cc(Nc2ncc(Cl)c(NCCCNC(=O)c3ccc(C#N)cc3)n2)ccc1F` [Compound of Formula (1)] in this work. For the same compound, the Cmax ([2]; plasma) was 22 ng/mL, the half-life ([2]; plasma) was 24 min and the AUC(0-t) ([3]; plasma 0-8 h) was 235 ng·h/mL. It also gave a Cmax ([3]; plasma) of 243 ng/mL.
